Measured values as given in patent US12152270B2, “Neurotransmitter transport in probiotics” (Iowa State University Research Foundation, Inc., priority 2017, dated 2024).

Legend:
[1] = test system: OCT-like uptake in L. salivarius biofilms; test: ASP+ fluorophore uptake (OCT-like) in L. salivarius biofilms; format: cell-based, Lactobacillus salivarius; conditions: for inhibition of ASP+ uptake: early and late biofilms
Protocol: (§1) At the start of the assay, 0.2 ml of stationary phase overnight bacterial growth was inoculated into 9.8 ml of pre-warmed MRS, thoroughly mixed, and 0.2 ml aliquots added to individual wells of Corning flat clear-bottomed 96 well microplates (product #3904, Corning, Inc., Corning, NY, USA). Plates were then placed into a 37° C. humidified incubator. Following static incubation for either 6 or 24 hours, plates were removed from the incubator and the well supernatants were gently removed leaving the bacterial biofilm intact on the bottom surface of the individual clear plate wells. Subsequently, the PMAT-specific fluorophore IDT307 (Molecular Devices) or the OCT-specific fluorophore ASP^+ (Sigma-Aldrich) dissolved in IMDM and pre-warmed to 37° C. was gently added to appropriate wells (added along the well side so as not to disturb the biofilm). The plate was immediately placed into a BioTek Synergy H1 reader (Winooski, VT, USA) and measured using Gen5 software at the time intervals shown in the FIGS. 4-7. All assays were done at 37° C. unless otherwise noted and reads were performed as bottom fluorescence in relative fluorescence units (RFU). For IDT307, the chemical and masking dye were supplied pre-measured and the amount of IMDM used as a diluent was the same as indicated for the use of HBSS. […] Drug Metab Dispos. 2015; 43(11):1773-80, herein incorporated by reference, with the minor modification that the fluorophore/masking dye combination were prepared as follows: 100 μl of a 2 mg ASP^+ stock solution per ml of distilled water was first added to 9.9 ml of IMDM and mixed, followed by the addition of 10 μl of a 10 mM Trypan blue solution. The excitation/emission wavelengths used for IDT307 and ASP^+, respectively, were 440 nm/520 nm and 475 nm/609 nm.
(§2) Plates were prepared as above in Example 4 and following 6 hours (FIGS. 8A and B for PMAT and OCT respectively) or 24 hours (FIGS. 8C and D for PMAT and OCT respectively) of incubation the media was gently removed and replaced with 100 μl of pre-warmed IMDM media with or without different concentrations of fluoxetine. The concentrations of fluoxetine were 0.3125 mM, 0.625 mM, 1.25 mM, or 2.5 mM. The plate was then incubated at 37° C. for 30 minutes. Following incubation, 100 μl of pre-warmed fluorophore was added to the appropriate wells. The plate was then immediate placed into the fluorescence reader and measured at 37° C.
(§3) Two other antidepressant drugs that are chemically unrelated to fluoxetine, duloxetine and amitriptyline, were tested for their action on PMAT- and OCT-like functionalities in Lactobacilli to determine if they may also be used as inhibitors. Cells were grown in 96-well plates for 24 hours to allow for biofilm formation as above. […] IDT307 or ASP^+ was then used to measure the effects of each antidepressant drug on the cells ability to take up the fluorophore.

[2] = test system: PMAT-like uptake in L. salivarius biofilms; test: IDT307 fluorophore uptake (PMAT-like) in L. salivarius biofilms; format: cell-based, Lactobacillus salivarius; conditions: for attenuation of IDT307 fluorophore uptake: 1 mg/ml, 24 hour biofilm; for uptake of IDT307-associated fluorescence: 100 μM; for inhibition of IDT307 uptake: early and late biofilms
Source text: For measurement of PMAT-like function, the IDT307 fluorophore-based Neurotransmitter Uptake Assay Kit (product #R8173, Molecular Devices, Sunnyvale, CA, USA) was used with modification. As it is intended for studies with mammalian cells, the kit recommends the use of phenol red-free Hank's Balanced Salt Solution (HBSS). Phenol red-free Iscove's Modified Dulbecco's Medium (IMDM; product #21056-023, Life Technologies, Carlsbad, CA, USA) was substituted for HBSS. […] IMDM was selected as it is a nutrient-rich, protein-free medium used in tissue culture that allows for robust growth of a wide variety of bacterial species in the absence of any protein additives common to most microbiology media.
as §1, §2, §3

[3] = test system: OCT-like uptake in L. reuteri; test: ASP+ fluorophore uptake (OCT-like) in L. reuteri; format: cell-based, Lactobacillus reuteri; conditions: for attenuation of ASP+ fluorophore uptake: 2 mg/ml, 24 hour biofilm
Source text: The fluorophore ASP^+[4-(4-(diethylamino)styryl)-N-methylpyridinium iodide] was obtained from Sigma Chemical Company (Sigma #D4318) and used as described in Duan et al., Drug Metabolism and Disposition, volume 43, pages 1773-1780, 2015 (herein incorporated by reference) with a slight modification in the ratio of ASP^+ and Trypan blue used.
To verify if OCT-like uptake was responsible for the influx of ASP^+ in Lactobacilli, L. reuteri was pre-treated with D-22, an OCT inhibitor. In brief, Lactobacilli reuteri (obtained from American Type Culture Collection, #23272) were grown overnight at 37° C. in an aerobic environment in flat-bottomed 96-well plates in MRS medium. Following overnight incubation, the medium in each well was carefully removed in order to not overtly disturb the biofilm and a final concentration of 20 μM D-22 dissolved in IMDM or control medium was added. The plate was then incubated for 20 minutes at 37° C. in an aerobic environment. Next, ASP^+ fluorophore dissolved in IMDM was added and the plate was then placed into a BioTek Synergy H1 plate reader at 37° C. and read continuously for a total of 6 hours.
as §3

[4] = molecular target: T1, recombinant PMAT (Homo sapiens, UniProt Q7RTT9); conditions: 20 μM, HEK293 embryonic kidney cells; cited from earlier work
T1 construct: host or cells: HEK293 embryonic kidney cells (transfected, in the earlier report)
T1 sequence (Q7RTT9 1-530): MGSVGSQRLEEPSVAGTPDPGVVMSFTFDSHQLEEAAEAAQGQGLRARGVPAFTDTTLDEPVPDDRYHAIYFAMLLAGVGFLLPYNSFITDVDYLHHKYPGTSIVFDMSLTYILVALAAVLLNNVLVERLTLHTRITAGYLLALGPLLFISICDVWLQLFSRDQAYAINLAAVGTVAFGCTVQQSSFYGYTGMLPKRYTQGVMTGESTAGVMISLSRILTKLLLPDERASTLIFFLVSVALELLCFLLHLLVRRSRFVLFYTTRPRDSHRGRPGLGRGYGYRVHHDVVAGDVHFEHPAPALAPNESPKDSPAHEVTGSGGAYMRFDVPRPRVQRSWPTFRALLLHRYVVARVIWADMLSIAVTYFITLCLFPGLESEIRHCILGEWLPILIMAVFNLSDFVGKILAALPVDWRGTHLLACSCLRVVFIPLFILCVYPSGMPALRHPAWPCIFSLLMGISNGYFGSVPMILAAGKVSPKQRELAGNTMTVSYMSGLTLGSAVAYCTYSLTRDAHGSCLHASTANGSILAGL

[5] = test system: recombinant OCTs; conditions: 20 μM, HEK293 embryonic kidney cells; cited from earlier work
[6] = test system: PMAT-like uptake in L. reuteri; conditions: 2 mg/ml, 24 hour biofilm
Protocol: as §3

[7] = test system: microbial communities of mice; test: In vivo administration of fluoxetine, 16S rRNA sequencing of microbial communities; conditions: male mice, oral, daily for 28 days
Protocol: Fluoxetine was administered on a daily basis by the oral route to male mice for 28 days in order to determine if any modulation in microbial communities could be obtained.
To classify the microbial communities, the genomes of isolated bacteria were sequenced and compared. Genomic DNA isolation was obtained using the PowerSoil DNA Isolation Kit (MoBio, Carlsbad, CA) on cecal and fecal samples. Assays were performed in accordance with the manufacturer's protocol with the following modifications: samples were incubated at 70° C. for 10 minutes immediately after addition of the C1 solution and the initial vortex step was extended to 20 minutes to thoroughly homogenize the samples. The purified bacterial genomic DNA extracts were quantified using a Qubit 2.0 Fluorometer (Life Technologies, Carlsbad, CA), and stored at −20° C. in 10 mM Tris buffer. For Illumina sequencing, bacterial genomic DNA was amplified using the Earth Microbiome Project barcoded primer set, adapted for the Illumina HiSeq2000 and MiSeq by adding nine extra bases in the adapter region of the forward amplification primer that support paired-end sequencing. The V4 region of the 16S rRNA gene (Illumina, 515F-806R) was amplified with region-specific primers that included the Illumina flowcell adapter sequences. The reverse amplification primer also contained a twelve base barcode sequence that supported pooling of up to 2,167 different samples in each lane. Each 25 μl PCR reaction contained 12 µl of MoBio PCR Water (Certified DNA-Free), 10 μl of 5 Prime HotMasterMix (1×), 1 μl of Forward Primer ([…], […]), 1 μl Golay Barcode Tagged Reverse Primer (5 μM concentration, […]), and […]. The conditions for PCR were as follows: 94° C. for 3 minutes to denature the DNA, with 35 cycles at 94° C. for 45 s, 50° C. for 60 s, and 72° C. for 90 s; with a final extension of 10 min at 72° C. to ensure complete amplification. The PCR amplicons were quantified using PicoGreen (Invitrogen) and a plate reader. Once quantified, different volumes of each of the products were pooled into a single tube so that each amplicon was represented equally. This pool was then cleaned up using UltraClean® PCR Clean-Up Kit (MoBIO), and quantified using the Qubit (Invitrogen). After quantification, the molarity of the pool was determined and diluted down to 2 nM, denatured, and then diluted to a final concentration of […] with a 10% PhiX spike for sequencing on the Illumina MiSeq.
In total, 60 fecal samples, representing 20 samples for each time point (day 0, 15, and 28) with 10 samples for the control and treatment groups, respectively, were used for 16S rRNA gene amplicon sequencing using Illumina MiSeq with 151 bp paired-end sequencing technology. 16S rRNA gene PCR and library preparation and sequencing were completed at the Environmental Sample Preparation and Sequencing Facility at Argonne National Laboratory. Sequence analysis was performed using mothur version 1.39.3 following the mothur MiSeq SOP available at the mothur website. Briefly, contigs were joined with “make.contigs”, reads longer than 250 bp, harboring any ambiguous bases or with more than 8 consecutive homopolymers were excluded using “screen.seqs”. Reads were aligned to the SILVA NR128 reference database. Chimeric sequences were removed with “chimera.uchime” and the remaining reads were clustered into operational taxonomic units (OTUs) using a 97% similarity threshold and taxonomy was assigned to OTUs using the SILVA NR 128 reference database. […] For determination of differences between groups on community level, analysis of molecular variance (AMOVA) and analysis of similarity (ANOSIM) implemented in mothur were used. Heatmaps were generated with JColorGrid. For better taxonomic classification, the OTUs were searched against the 16S rRNA gene sequences of the Mouse Intestinal Bacterial Collection isolates (miBC) using BlastN.

[8] = biofilms established over 24 hours
[9] = concentrations higher than 0.625 mM

CCN(CC)c1ccc(C=Cc2cc[n+](C)cc2)cc1.[I-] [ASP^+, 4-(4-(diethylamino)styryl)-N-methylpyridinium iodide]
time of intracellular fluorescence decay after maximum ([1]; 6 hour biofilms, 37° C.): 2 to 3 h
time to maximum fluorescence intensity ([1]; 6 hour biofilms, 37° C.): < 60 min
residence time of probe in biofilm [1, 8]: > 6 h

CN(C)CCC=C1c2ccccc2CCc2ccccc21 [Amitriptyline, amitriptyline]
attenuation of IDT307 fluorophore uptake [2]: much stronger inhibitory effect
attenuation of ASP+ fluorophore uptake [3]: much stronger inhibitory effect

CN(C)c1ccc(-c2cc[n+](C)cc2)cc1.[I-] [IDT307, 4-[p-(Dimethylamino)phenyl]-1-methylpyridinium iodide]
time of intracellular fluorescence decay after maximum ([2]; 6 hour biofilms, 37° C.): 2 to 3 h
time to maximum fluorescence intensity ([2]; 6 hour biofilms, 37° C.): < 60 min
residence time of probe in biofilm [2, 8]: > 6 h

NC[C@H](O)c1ccc(O)c(O)c1 [NE, norepinephrine]
uptake of IDT307-associated fluorescence ([2]; 6 hour biofilms): markedly inhibited

CCN1/C(=C/c2ccc3ccccc3[n+]2CC)C=Cc2ccccc21.[I-] [decynium-22]
peak increase in IDT307 uptake ([2]; 20 μM, early (6 hour) biofilms): blunted
peak increase in ASP+ uptake ([1]; 20 μM, early (6 hour) biofilms): blunted
ability of the ASP+ fluorophore to enter into the cells (fluorescence) ([3]; 20 μM, 20 min pre-incubation, overnight biofilm, read 6 hours, all time points): reduced the ability of the ASP^+ fluorophore to enter into the cells
serotonin uptake through recombinant PMAT [4]: block serotonin uptake
serotonin uptake through recombinant OCTs [5]: block serotonin uptake

CNCC[C@H](Oc1cccc2ccccc12)c1cccs1 [duloxetine]
attenuation of IDT307 fluorophore uptake [2]: some attenuation
attenuation of ASP+ fluorophore uptake ([1]; 1 mg/ml, 24 hour biofilm): some attenuation
attenuation of IDT307 fluorophore uptake [6]: larger attenuation of fluorophore uptake
attenuation of ASP+ fluorophore uptake [3]: larger attenuation of fluorophore uptake

CNCCC(Oc1ccc(C(F)(F)F)cc1)c1ccccc1 (stereo not drawn) [fluoxetine]
inhibition of IDT307 uptake ([2]; concentrations below 0.625 mM): concentration-dependent inhibition
inhibition of IDT307 uptake [2, 9]: total inhibition
inhibition of ASP+ uptake ([1]; concentrations below 0.625 mM): concentration-dependent inhibition
inhibition of ASP+ uptake [1, 9]: total inhibition
overall effect on microbial communities [7]: shift of microbial communities towards dysbiosis
decrease of Lactobacillus OTU17 abundance under treatment ([7]; fecal samples): 7.4 fold
number of OTUs different between control and fluoxetine group ([7]; fecal samples): 121 OTUs
species richness and diversity estimators vs control group ([7]; fecal samples): No statistical significant differences
abundance of Firmicutes relative to Bacteroidetes ([7]; phylum level): trended (p=0.08) to be more abundant than Bacteroidetes
whole community level comparison with control (AMOVA and ANOSIM) ([7]; p=0.02 and p=0.05): statistically significant differences

NCCc1c[nH]c2ccc(O)cc12 [serotonin]
uptake of IDT307-associated fluorescence ([2]; 6 hour biofilms): markedly inhibited

O=NO [sodium nitrite]
uptake of IDT307-associated fluorescence ([2]; 6 hour biofilms): inhibited the rapid rise in IDT307-associated fluorescence
